The test system of test [1] is Staphylococcus aureus. Nature of the test: Antibacterial activity against methicillin-resistant Staphylococcus aureus isolate AG 044 by broth microdilution assay. The class given is functional. In general terms: Broth dilution looks for growth in wells or tubes with falling amounts of substance.
Test [2] has as its system Staphylococcus aureus. Nature of the test: Antibacterial activity against methicillin-resistant Staphylococcus aureus isolate AG 039 by broth microdilution assay. The format is functional.
A short description of test [3]: Inhibition of human ribosome containing eukaryotic ribosomal RNA A-site A1555G mutant in rabbit reticulocyte lysates assessed as reduction in ribosome-mediated protein synthesis in presence of S-30 extracts by fire fly luciferase synthesis based cell-free translation assay.
Test [4] can be described thus: Inhibition of human ribosome containing eukaryotic ribosomal RNA A-site Cyt14 allele in rabbit reticulocyte lysates assessed as reduction in ribosome-mediated protein synthesis in presence of S-30 extracts by fire fly luciferase synthesis based cell-free translation assay.
The subject of test [5] is Escherichia coli. Nature of the test: Antibacterial activity against Escherichia coli isolate 003 by broth microdilution assay. The format is functional.
Test [6] relates to Ribosome. Nature of the test: Inhibition of ribosome-mediated protein synthesis in rabbit reticulocyte lysates in presence of S-30 extracts by fire fly luciferase synthesis based cell-free translation assay. Also noted: species or system Oryctolagus cuniculus.
Test [7] relates to Escherichia coli. Nature of the test: Antibacterial activity against Escherichia coli isolate 055 by broth microdilution assay. The class given is functional.
The target in test [8] is Bacterial 70S ribosome. Nature of the test: Inhibition of Mycobacterium smegmatis ribosome containing wild type ribosomal RNA A-site in rabbit reticulocyte lysates assessed as reduction in ribosome-mediated protein synthesis in presence of S-30 extracts by fire fly luciferase synthesis based cell-free translation assay. Also noted: species or system Mycolicibacterium smegmatis.

For test [9], the target named is 80S Ribosome. Nature of the test: Inhibition of human ribosome containing eukaryotic wild type ribosomal RNA A-site in rabbit reticulocyte lysates assessed as reduction in ribosome-mediated protein synthesis in presence of S-30 extracts by fire fly luciferase synthesis based cell-free translation assay.
In test [10] the test system is Staphylococcus aureus. Nature of the test: Antibacterial activity against methicillin-resistant Staphylococcus aureus isolate AG 042 by broth microdilution assay. The class given is functional.
Test [11] can be described thus: Inhibition of Mycobacterium smegmatis ribosome containing ribosomal RNA A-site G1491A mutant in rabbit reticulocyte lysates assessed as reduction in ribosome-mediated protein synthesis in presence of S-30 extracts by fire fly luciferase synthesis based cell-free translation assay. Also on record: species or system Mycolicibacterium smegmatis.
The subject of test [12] is Escherichia coli. Nature of the test: Antibacterial activity against Escherichia coli isolate 006 by broth microdilution assay. The format is functional.
Test [13] concerns Escherichia coli. Nature of the test: Antibacterial activity against Escherichia coli isolate 001 by broth microdilution assay. The format is functional.
Test [14] deals with Staphylococcus aureus. Nature of the test: Antibacterial activity against methicillin-resistant Staphylococcus aureus isolate AG 038 by broth microdilution assay. The class given is functional.
A short description of test [15]: Inhibition of Mycobacterium smegmatis ribosome containing ribosomal RNA A-site A1408G mutant in rabbit reticulocyte lysates assessed as reduction in ribosome-mediated protein synthesis in presence of S-30 extracts by fire fly luciferase synthesis based cell-free translation assay. Also noted: species or system Mycolicibacterium smegmatis.
The nature of test [16]: Inhibition of Mycobacterium smegmatis ribosome containing ribosomal RNA A-site G1491C mutant in rabbit reticulocyte lysates assessed as reduction in ribosome-mediated protein synthesis in presence of S-30 extracts by fire fly luciferase synthesis based cell-free translation assay. Also on record: species or system Mycolicibacterium smegmatis.

Each structure is given as a SMILES string. Values after ≈ are worked out from the molar mass of the structure shown.

The source of these data is ChEMBL document CHEMBL3588782, “Synthesis, antiribosomal and antibacterial activity of 4-O-glycopyranosyl paromomycin aminoglycoside antibiotics” (Medchemcomm, 2014).

For `NC[C@@H]1O[C@H](O[C@H]2[C@@H](O)[C@H](O[C@@H]3[C@@H](O)[C@H](N)C[C@H](N)[C@H]3O[C@H]3O[C@H](CO)[C@@H](O[C@H]4O[C@H](CO)[C@@H](O)[C@H](O)[C@@H]4O)[C@H](O)[C@H]3N)O[C@@H]2CO)[C@H](N)[C@@H](O)[C@@H]1O`, the MIC in [1] was 32 µg/mL (≈ 41.1 µM); in test [2] it was at least 128 µg/mL; in [5], at least 128 µg/mL; in test [7] it was above 128 µg/mL; in test [10], above 128 µg/mL; in test [12], 16 µg/mL (≈ 20.6 µM). The MIC in test [13] was above 128 µg/mL; in [14], 64 µg/mL (≈ 82.3 µM). In addition, the IC50 is 18.05 µg/mL in test [3]; 51.72 µg/mL in test [4]; 36.82 µg/mL in test [6]; 373 nM in test [8]; 2820 nM in [9]; 8.79 µg/mL in test [11]. In addition, the figures for the IC50 in [15] and in test [16] were 5.1 µg/mL and 81.32 µg/mL, respectively.

As for `NC[C@@H]1O[C@H](O[C@H]2[C@@H](O)[C@H](O[C@@H]3[C@@H](O)[C@H](N)C[C@H](N)[C@H]3O[C@H]3O[C@H](CO)[C@@H](O[C@@H]4O[C@H](CO)[C@H](O)[C@H](O)[C@H]4O)[C@H](O)[C@H]3N)O[C@@H]2CO)[C@H](N)[C@@H](O)[C@@H]1O`, the minimal inhibitory concentration (MIC) in [1] is above 128 µg/mL; in [2] it was at least 128 µg/mL; in test [5] it was above 128 µg/mL; in test [7], above 128 µg/mL; in test [10] it was above 128 µg/mL; in test [12], 128 µg/mL (≈ 165 µM). In addition, the MIC was above 128 µg/mL in test [13] and at least 128 µg/mL in test [14]. In addition, the IC50 in test [3] was 209.22 µg/mL; in test [4] it was 286.76 µg/mL; in [6], 104.57 µg/mL; in test [8] it was 1950 nM; in test [9] it was 182000 nM; in [11] it was 78.05 µg/mL. Besides, the IC50 in [15] is 36.46 µg/mL; in [16] it was 623.16 µg/mL.

In the case of `NC[C@@H]1O[C@H](O[C@H]2[C@@H](O)[C@H](O[C@@H]3[C@@H](O)[C@H](N)C[C@H](N)[C@H]3O[C@H]3O[C@H](CO)[C@@H](O[C@@H]4O[C@H](CO)[C@@H](O)[C@H](O)[C@@H]4O)[C@H](O)[C@H]3N)O[C@@H]2CO)[C@H](N)[C@@H](O)[C@@H]1O`, the MIC was at least 128 µg/mL in [1]; at least 128 µg/mL in test [2]; above 128 µg/mL in test [5]; above 128 µg/mL in test [7]; at least 128 µg/mL in test [10]; 64 µg/mL (≈ 82.3 µM) in test [12]. Also, the MIC in [13] is above 128 µg/mL; in [14], at least 128 µg/mL. The IC50 in test [3] was 85.7 µg/mL; in test [4] it was 90.35 µg/mL; in test [6] it was 47.64 µg/mL; in test [8], 591 nM; in test [9], 70200 nM; in test [11], 51.48 µg/mL. Further, the IC50 in test [15] is 27.91 µg/mL; in test [16] it was 297.39 µg/mL.

Take `NC[C@@H]1O[C@H](O[C@H]2[C@@H](O)[C@H](O[C@@H]3[C@@H](O)[C@H](N)C[C@H](N)[C@H]3O[C@H]3O[C@H](CO)[C@@H](O[C@H]4O[C@H](CO)[C@@H](O)[C@H](O)[C@H]4O)[C@H](O)[C@H]3N)O[C@@H]2CO)[C@H](N)[C@@H](O)[C@@H]1O`: the MIC in [1] is 16 µg/mL (≈ 20.6 µM); in [2], 32 µg/mL (≈ 41.1 µM); in test [5], 128 µg/mL (≈ 165 µM); in test [7], 128 µg/mL (≈ 165 µM); in [10], 32 µg/mL (≈ 41.1 µM); in test [12], 16 µg/mL (≈ 20.6 µM). Besides, the values for the MIC in [13] and in test [14] were 128 µg/mL (≈ 165 µM) and 32 µg/mL (≈ 41.1 µM), respectively. In addition, the IC50 was 13.98 µg/mL in test [3]; 46.26 µg/mL in [4]; 30.64 µg/mL in test [6]; 411 nM in test [8]; 2390 nM in test [9]; 27.08 µg/mL in [11]. In addition, the IC50 amounted to 21.84 µg/mL in [15] and 109.01 µg/mL in [16].

Usually MIC stands for the smallest concentration in the dilution series that meets the test's criterion for growth inhibition. Read a high MIC as a need for much substance. The IC50 is the concentration that inhibits the measured activity by half.
